Measurements as given in patent publication US12569482B2, “Methods and compositions for treating idiopathic pulmonary fibrosis” (priority 2018, dated 2026).
Like-named read-outs stand apart in the source and are kept apart here.

What was measured:
[1] = system: bleomycin-induced lung fibrosis; assay: Bleomycin induced IPF mouse model, Example 2 (oral itraconazole, nintedanib or combination); format: in vivo, C57BL/6 mice
Method: The animals in the Control group were administered intratracheally with PBS at a dose of 2 mL/kg while the others were administered intratracheally with bleomycin (Cat #HY-17565, MCE) at a dose of 0.66 mg/kg. On Day 5, the mice with bleomycin treatment were divided into four groups at random (referred to as Group 2-5, n=10), and orally administered with vehicle (DMSO: PEG400=1:[…]), itraconazole ([…] Co. Ltd. prepared in DMSO/PEG400 with a final concentration of 1.5 mg/mL), nintedanib ([…] Co. […] The mice in the Control group was administered with vehicle (DMSO/PEG400) at a daily dose of 10 mL/kg. Mice body weights were measured and recorded on Day 1, 5, 12, 19 and 21.

[2] = Plasma drug levels, Example 2; format: in vivo, C57BL/6 mice; conditions: C57BL/6, mouse
Method: On Day 5, the mice with bleomycin treatment were divided into four groups at random (referred to as Group 2-5, n=10), and orally administered with vehicle (DMSO: PEG400=1:9, V/V), itraconazole (Kangmanlin Co. Ltd. prepared in DMSO/PEG400 with a final concentration of 1.5 mg/mL), nintedanib (Kangmanlin Co. Ltd., prepared in DMSO/PEG400 with a final concentration of 6.0 mg/mL), and itraconazole+nintedanib (prepared in DMSO/PEG400 with final concentrations of 1.5 mg/mL and 6.0 mg/mL) at daily doses of 10 mL/kg, 15 mg/kg, 60 mg/kg and 15+60 mg/kg, respectively. The mice in the Control group was administered with vehicle (DMSO/PEG400) at a daily dose of 10 mL/kg. Mice body weights were measured and recorded on Day 1, 5, 12, 19 and 21.
Two hours post drug administration on Day 21, all animals were anaesthetized with pentobarbital (i.p., 60 mg/kg). Blood sample, bronchoalveolar lavage fluid (BALF) and lung lobes were collected from each mouse and then processed following the protocols in Example 1.

[3] = system: bleomycin-induced pulmonary fibrosis; assay: Bleomycin mouse model of pulmonary fibrosis, Example 3 (itraconazole inhalation, oral nintedanib); format: in vivo, ICR mice; conditions: oral 60 mg/kg
Method: Iodine was used to disinfect the neck hair and skin. Later, the neck skin was cut to expose the trachea. 50 μL of PBS or bleomycin hydrochloride (Hisun Pfizer pharmaceutical Co., LTD, 17001711) in 0.9% sodium chloride solution ([…], i.e., […]) was quickly sprayed as mist into the trachea of mice from the Control Group or the other group with a high pressure syringe connected to a spraying nozzle. At the end, the skin was sutured and disinfected, and the mice were returned to the cages for recovery. On Day 5, the mice treated with bleomycin were divided into six groups at random (referred to as Group 2-7). […] For itraconazole inhalation, each mouse was placed in a 16×13×9 (length×width×height in cm) cabinet. Itraconazole preparation of 5, 15 or 50 mg/mL was sprayed into the cabinet with a compressed nebulizer. [table] Twenty-four hours after the last drug administration, the mice were sacrificed by dislocation of cervical vertebra. The trachea was isolated and intubated. The upper lobe of the left lung was ligated. […] The total number of leukocytes in the BALF was counted. The BALF was centrifuged at 2000 rpm/min for 10 min at 4° C. The supernatant was collected and stored at -80° C. for cytokine measurement, and the deposit was smeared on glass slides. After air drying at room temperature, the slides were subjected to Wright's-Giemsa staining. The number of neutrophils, lymphocytes and macrophages were counted under a microscope from a total of 200 cells for each slide. The upper left lung tissues were used for measuring the level of hydroxyproline, and the lower part was fixed in formalin for H&E staining and Masson's staining. The level of hydroxyproline in the lung tissues was measured using a Hydroxyproline Assay kit (Nanjing JianCheng Bioengineering Institute). The level of TGF-β1 in 100 μL BALF was determined using a mouse TGF-β1 ELISA kit (Beijing 4A Biotech Co., LTD), and the level of type I collagen (Col I) in 100 μL BALF was determined using a mouse Collagen Type I ELISA kit (CUSABIO BIOTEH). […] Then, the lung tissues were sectioned into 4 μm-thick sections for H&E staining and Masson's staining. H&E staining was used to observe the alveolar hyperemia, the infiltration or aggregation of neutrophils in the alveolar space or the vascular wall, and the thickening of alveolar septum or the formation of hyaline membranes. The degree of fibrosis in the lesions with H&E staining was observed under microscope and scored using a semi-quantitative Ashcroft scoring criteria below. Grade 0: Normal tracheal bronchoalveolar structures; Grade 1: Minimal fibrous thickening of alveolar or bronchiolar walls; Grade 3: Moderate thickening of walls without obvious damage to lung architecture; Grade 5: Increased fibrosis with definite damage to lung structure and formation of fibrous bands or small fibrous masses; Grade 7: Severe distortion of structure and large fibrous areas, with honeycomb lung placed in this category; Grade 8: Total fibrous obliteration. The severity of fibrosis between two odd numbers was considered as the corresponding even number. On the other hand, IOD value of positive Masson's staining site was measured by Image pro software for analysis. The data were tested for the homogeneity of variance. If the variance was homogenous (p>0.05), a single factor variance analysis was performed. The Dunnet test was performed for the differences between each dose group and the control group. If the variance was heterogenous (p 0.05), a non-parametric test was conducted, followed by the […] test for examining the differences between each dose group and the control group. The difference was considered significant when p<0.05.

[4] = compared to model group, 15 mg/kg, 60 mg/kg, 15+60 mg/kg p.o. daily

Question: With `COC(=O)c1ccc2c(c1)NC(=O)/C2=C(\Nc1ccc(N(C)C(=O)CN2CCN(C)CC2)cc1)c1ccccc1` [nintedanib] as the compound, how does the BALF collagen level [1, 4] read?
Answer: reduced

Question: What about the BALF neutrophil number [1, 4] of the same compound?
Answer: reduced

Question: And the lung inflammation area [1, 4]?
Answer: significantly reduced

Question: And the “modified Ashcroft score” value [1, 4]?
Answer: significantly reduced

Question: And the α-SMA staining area [1, 4]?
Answer: significantly reduced

Question: What about the mice body weight ([1]; itraconazole 15 mg/kg, nintedanib 60 mg/kg, 15+60 mg/kg p.o. daily Day 5-21) of the same compound?
Answer: inhibited bleomycin-induced body weight reduction to some extent

Question: What about the concentration at 2 h ([2]; oral, Day 21, itraconazole 15 mg/kg, nintedanib 60 mg/kg p.o. daily, read-out: two-hour post dosing plasma level, single agent) of the same compound?
Answer: 310 ng/mL

Question: What about the concentration at 2 h ([2]; po, Day 21, 15+60 mg/kg p.o. daily, read-out: two-hour post dosing plasma drug level, itraconazole and nintedanib combined in administration) of the same compound?
Answer: 397 ng/mL

Question: What about the “level of Col I in the BALF” value [3] of the same compound?
Answer: did not reduce

Question: And the “number of lymphocytes and macrophages in the BALF” value [3]?
Answer: had no effects

Question: What about the “pathological changes of lung tissues (H&E staining)” value [3] of the same compound?
Answer: significantly reduced the infiltration of neutrophils and macrophages and the thickening of alveolar septum

Question: What about the “collagen deposition in the lung tissues (Masson's staining IOD)” value ([3]; p<0.001) of the same compound?
Answer: significantly reduced the collagen deposition

Question: What about the “level of TGF-β1 in the BALF” value ([3]; p<0.001) of the same compound?
Answer: significantly reduced

Question: What about the “level of hydroxyproline in the lung tissues” value ([3]; p<0.01) of the same compound?
Answer: significantly reduced

Question: And the “neutrophils in the BALF” value ([3]; p<0.01)?
Answer: significantly reduced

Question: What about the “semi-quantitative Ashcroft Score” value ([3]; p<0.01) of the same compound?
Answer: significantly reduced the pulmonary fibrosis

Question: What about the “total number of leukocytes in the BALF” value ([3]; p<0.01) of the same compound?
Answer: significantly reduced
